From the NIST ThermoML archive (doi:10.1021/acs.jced.9b00396)
Numbers after ± are expanded uncertainties.

Conditions: Liquid, Vibrating tube method

OCc1ccccc1 [benzenemethanol]
mass density [kg/m3]
Conditions	378.15 K	398.15 K	418.15 K	438.15 K	458.15 K	473.15 K
500 kPa	–	960 ± 1	942 ± 1	924 ± 1	904 ± 1	889 ± 1
1000 kPa	–	960 ± 1	943 ± 1	924 ± 1	905 ± 1	891 ± 1
2500 kPa	–	962 ± 1	944 ± 1	926 ± 1	907 ± 1	892 ± 1
5000 kPa	–	963 ± 1	946 ± 1	928 ± 1	909 ± 1	895 ± 1
7500 kPa	–	965 ± 1	948 ± 1	930 ± 1	912 ± 1	898 ± 1
10000 kPa	–	967 ± 1	950 ± 1	933 ± 1	915 ± 1	901 ± 1
12500 kPa	–	969 ± 1	952 ± 1	935 ± 1	917 ± 1	903 ± 1
15000 kPa	–	971 ± 1	954 ± 1	937 ± 1	920 ± 1	906 ± 1
17500 kPa	–	973 ± 1	956 ± 1	939 ± 1	922 ± 1	909 ± 1
20000 kPa	–	974 ± 1	958 ± 1	941 ± 1	924 ± 1	911 ± 1
22500 kPa	–	976 ± 1	960 ± 1	944 ± 1	927 ± 1	914 ± 1
25000 kPa	–	978 ± 1	962 ± 1	946 ± 1	929 ± 1	916 ± 1
27500 kPa	995 ± 1	979 ± 1	964 ± 1	948 ± 1	931 ± 1	919 ± 1
30000 kPa	997 ± 1	981 ± 1	965 ± 1	949 ± 1	933 ± 1	921 ± 1
32500 kPa	998 ± 1	983 ± 1	967 ± 1	952 ± 1	935 ± 1	923 ± 1
35000 kPa	1000 ± 1	985 ± 1	969 ± 1	953 ± 1	937 ± 1	925 ± 1
